ChEMBL document CHEMBL1201862, “PubChem BioAssay data set” (2004)
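Dose response: 5 concentrations. Exposure: 48 h. Format: 96-well plates. Endpoint: linear interpolation; highest concentration if not reached. GI50 marks 50% less growth.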 Calls of active or inactive are those of the source. No stated cut-off is given here; in the data, active = GI50 up to about 1.1 µM and inactive = higher.

Legend:
Experiment in all cases: growth of human tumour cells (NCI), 48 h
A549 = test system: A549
KM12 = test system: KM12
OVCAR-4 = test system: OVCAR-4
NCI/ADR-RES = test system: NCI/ADR-RES
ACHN = test system: ACHN
DU-145 = test system: DU-145
T47D = test system: T47D
SF-295 = test system: SF-295
OVCAR-8 = test system: OVCAR-8
HOP-92 = test system: HOP-92
M14 = test system: M14
HCT-15 = test system: HCT-15
NCI-H460 = test system: NCI-H460
SK-MEL-5 = test system: SK-MEL-5
IGROV-1 = test system: IGROV-1
LOX IMVI = test system: LOX IMVI
Hs-578T = test system: Hs-578T
UO-31 = test system: UO-31
MOLT-4 = test system: MOLT-4
SN12C = test system: SN12C

| Compound | GI50 (A549) | GI50 (KM12) | GI50 (OVCAR-4) | GI50 (NCI/ADR-RES) | GI50 (ACHN) | GI50 (DU-145) | GI50 (T47D) | GI50 (SF-295) | GI50 (OVCAR-8) | GI50 (HOP-92) | GI50 (M14) | GI50 (HCT-15) [µM] | GI50 (NCI-H460) | GI50 (SK-MEL-5) | GI50 (IGROV-1) | GI50 (LOX IMVI) | GI50 (Hs-578T) | GI50 (UO-31) | GI50 (MOLT-4) | GI50 (SN12C) |
| --- | --- | --- | --- | --- | --- | --- | --- | --- | --- | --- | --- | --- | --- | --- | --- | --- | --- | --- | --- | --- |
| CN1CCN(c2ccncc2S(=O)(=O)N2CCN(C)CC2)CC1 | > 100 µM (inactive) | > 100 µM (inactive) | > 100 µM (inactive) | > 100 µM (inactive) | > 100 µM (inactive) | > 100 µM (inactive) | > 100 µM (inactive) | > 100 µM (inactive) | > 100 µM (inactive) | > 100 µM (inactive) | > 100 µM (inactive) | > 100 | > 100 µM (inactive) | > 100 µM (inactive) | > 100 µM (inactive) | > 100 µM (inactive) | > 100 µM (inactive) | > 100 µM (inactive) | – | – |
| COc1cc2c(cc1OCCN1C(=O)c3cccc4cccc(c34)C1=O)N=C[C@@H]1CCCN1C2=O | 8.65 µM (inactive) | 14.3 µM (inactive) | 16 µM (inactive) | 15.8 µM (inactive) | 8.07 µM (inactive) | 8.89 µM (inactive) | 9.35 µM (inactive) | 13.7 µM (inactive) | 8.57 µM (inactive) | 7.76 µM (inactive) | 8.34 µM (inactive) | 9.31 | 5.89 µM (inactive) | 8.61 µM (inactive) | 3.11 µM (inactive) | 6.04 µM (inactive) | 7.8 µM (inactive) | 8.87 µM (inactive) | 1.01 µM (active) | 7.93 µM (inactive) |
| COC(=O)c1ccc2c(c1)sc1nc(-c3ccc(OC)cc3)cn12 | > 100 µM (inactive) | 56.1 µM (inactive) | > 100 µM (inactive) | > 100 µM (inactive) | > 100 µM (inactive) | > 100 µM (inactive) | 35.2 µM (inactive) | > 100 µM (inactive) | 91.4 µM (inactive) | 24.7 µM (inactive) | > 100 µM (inactive) | > 100 | > 100 µM (inactive) | 21.1 µM (inactive) | 48.2 µM (inactive) | > 100 µM (inactive) | 37.3 µM (inactive) | > 100 µM (inactive) | > 100 µM (inactive) | > 100 µM (inactive) |
| O=[N+]([O-])c1ccc(/C=N/Nc2nc3ccccc3[nH]2)o1 | 12.2 µM (inactive) | 10.6 µM (inactive) | 8.69 µM (inactive) | 24.6 µM (inactive) | – | 13.9 µM (inactive) | 13.6 µM (inactive) | 16 µM (inactive) | 16.7 µM (inactive) | 17.4 µM (inactive) | 12.7 µM (inactive) | 11.8 | 17.5 µM (inactive) | 4.14 µM (inactive) | 12.6 µM (inactive) | 13.9 µM (inactive) | 33.3 µM (inactive) | 18.7 µM (inactive) | 11.2 µM (inactive) | 15.7 µM (inactive) |
| COc1ccc(OC)c([N+](=O)[O-])c1-c1nc2sc(Cl)cn2c1/C=N/N=C(N)N | 23.2 µM (inactive) | 15.4 µM (inactive) | 12.2 µM (inactive) | > 100 µM (inactive) | 28.6 µM (inactive) | 21.8 µM (inactive) | 17.8 µM (inactive) | 24.9 µM (inactive) | 19.2 µM (inactive) | 10.1 µM (inactive) | 34.4 µM (inactive) | 41.2 | 20.7 µM (inactive) | 14.4 µM (inactive) | 12.9 µM (inactive) | 25 µM (inactive) | 19.1 µM (inactive) | 16.7 µM (inactive) | 4.9 µM (inactive) | 17.3 µM (inactive) |
| N=C(N)NS(=O)(=O)c1ccc(NNC(=O)c2cccc3c(O)c4ccccc4nc23)cc1 | 38.7 µM (inactive) | 21.8 µM (inactive) | 29.5 µM (inactive) | 38.3 µM (inactive) | 21.1 µM (inactive) | 32.7 µM (inactive) | 17.7 µM (inactive) | 35.7 µM (inactive) | 26.1 µM (inactive) | 25.3 µM (inactive) | 17.4 µM (inactive) | 23 | 20.6 µM (inactive) | 17.1 µM (inactive) | 24.9 µM (inactive) | 24.5 µM (inactive) | 63.2 µM (inactive) | 18.9 µM (inactive) | 30.2 µM (inactive) | 33.8 µM (inactive) |
| CCOC(=O)Cc1c(C)c2cc(C(=O)c3ccccc3)c(O)cc2oc1=O | 25.8 µM (inactive) | – | 31.8 µM (inactive) | 26.1 µM (inactive) | 29.3 µM (inactive) | 30.8 µM (inactive) | 28.2 µM (inactive) | 34.8 µM (inactive) | 34.1 µM (inactive) | 21.6 µM (inactive) | 34.3 µM (inactive) | 29.4 | 33.3 µM (inactive) | 17.6 µM (inactive) | 39.6 µM (inactive) | 30.3 µM (inactive) | 26.2 µM (inactive) | – | 36.1 µM (inactive) | 31.6 µM (inactive) |
| COc1ccc(Oc2nc3cc(C(F)(F)F)ccc3nc2C(C)C)cc1 | 31.1 µM (inactive) | 31.6 µM (inactive) | 34.7 µM (inactive) | 19.4 µM (inactive) | 26.2 µM (inactive) | 27.2 µM (inactive) | 15.1 µM (inactive) | 21.2 µM (inactive) | 25.2 µM (inactive) | 17.2 µM (inactive) | 31.6 µM (inactive) | 23.8 | 23.2 µM (inactive) | 22.2 µM (inactive) | 23.3 µM (inactive) | 15.3 µM (inactive) | 31.6 µM (inactive) | 32.6 µM (inactive) | 15.7 µM (inactive) | 24.5 µM (inactive) |
| CCOC(=O)c1sc2nc(SC)nc3c2c1NCN3c1ccc(F)c(F)c1 | 8.04 µM (inactive) | 10.7 µM (inactive) | 4.76 µM (inactive) | 9.98 µM (inactive) | 6.97 µM (inactive) | 8.43 µM (inactive) | 29.4 µM (inactive) | 24.2 µM (inactive) | 5.27 µM (inactive) | 18.5 µM (inactive) | 31.4 µM (inactive) | 12.4 | 8.63 µM (inactive) | > 71.9 µM (inactive) | 43.1 µM (inactive) | 6.59 µM (inactive) | 4.28 µM (inactive) | 22.1 µM (inactive) | > 55.2 µM (inactive) | 30.5 µM (inactive) |
| O=C1C(NCCO)=C(N2CC2)C(=O)C(NCCO)=C1N1CC1 | 44.5 µM (inactive) | 74.5 µM (inactive) | > 57.4 µM (inactive) | > 100 µM (inactive) | 30.8 µM (inactive) | > 77.3 µM (inactive) | > 69.2 µM (inactive) | 26.5 µM (inactive) | 37.1 µM (inactive) | > 73.1 µM (inactive) | 47.3 µM (inactive) | 57.5 | 10.2 µM (inactive) | 50 µM (inactive) | > 97.5 µM (inactive) | 17.1 µM (inactive) | > 100 µM (inactive) | 51.9 µM (inactive) | 12.2 µM (inactive) | 26.5 µM (inactive) |
| CC(C)(C)C1=CC(=C2C=Cc3cc(O)ccc3O2)C=C(C(C)(C)C)C1=O | 1.5 µM (inactive) | 1.58 µM (inactive) | 1.31 µM (inactive) | 1.95 µM (inactive) | 1.69 µM (inactive) | 1.45 µM (inactive) | 0.627 µM (active) | 1.87 µM (inactive) | 1.7 µM (inactive) | 1.67 µM (inactive) | 1.69 µM (inactive) | 1.79 | 1.34 µM (inactive) | 1.58 µM (inactive) | 1.59 µM (inactive) | 1.56 µM (inactive) | 2.27 µM (inactive) | 1.24 µM (inactive) | 0.435 µM (active) | 1.63 µM (inactive) |
| COC(=O)C1OC(O[C@H]2CC[C@]3(C)[C@H]4CC=C5[C@@H]6CC(C)(C)CC[C@]6(C(=O)OC6OCC(O)C(O)C6OC6OC(C)C(OC7OCC(OC8OCC(O)C(O)C8O)C(O)C7O)C(O)C6O)[C@H](O)C[C@@]5(C)[C@]4(C)CC[C@H]3C2(C)C)C(O)C(O)C1O (some centres undefined) | 2.93 µM (inactive) | 3.72 µM (inactive) | 9.31 µM (inactive) | 6.41 µM (inactive) | 3.54 µM (inactive) | 2.13 µM (inactive) | 1.43 µM (inactive) | 3.05 µM (inactive) | 5.27 µM (inactive) | 1.91 µM (inactive) | 1.85 µM (inactive) | 10.6 | 16 µM (inactive) | 3.4 µM (inactive) | 4.57 µM (inactive) | 8.53 µM (inactive) | 6.15 µM (inactive) | 1.75 µM (inactive) | 15.7 µM (inactive) | 1.8 µM (inactive) |
| CCCCCCCCCCCCCC/C(C(=O)O)=C(\C)C(=O)O | > 100 µM (inactive) | > 100 µM (inactive) | > 100 µM (inactive) | 97.7 µM (inactive) | > 100 µM (inactive) | > 100 µM (inactive) | > 100 µM (inactive) | > 100 µM (inactive) | > 100 µM (inactive) | > 100 µM (inactive) | > 100 µM (inactive) | > 100 | > 100 µM (inactive) | > 100 µM (inactive) | > 100 µM (inactive) | > 100 µM (inactive) | > 100 µM (inactive) | > 100 µM (inactive) | > 100 µM (inactive) | > 100 µM (inactive) |
| CCOC(=O)NC1=C(N2CC2)C(=O)C(NC(=O)OCC)=C(N2CC2)C1=O [DIAZIQUONE] | – | 8.81 µM (inactive) | 4.9 µM (inactive) | 3.48 µM (inactive) | 0.82 µM (active) | 1.9 µM (inactive) | 6.21 µM (inactive) | 1.12 µM (active) | 3.73 µM (inactive) | 5.51 µM (inactive) | 2.62 µM (inactive) | 7.69 | 0.188 µM (active) | 3.72 µM (inactive) | 5.33 µM (inactive) | 2.31 µM (inactive) | 13.2 µM (inactive) | 5.56 µM (inactive) | 1.38 µM (inactive) | 1.36 µM (inactive) |
